Experiments:
golden Syrian hamsters [1] = experiment: Peptide-specific antibody ELISA of sera from immunized hamsters; format: in vivo; conditions: listed in rank order
Protocol: Female golden Syrian hamsters (Charles River Laboratories, Wilmington, Mass.) are immunized with a 2-dose regimen with a 14-day interval between doses. Two weeks after the second dose, hamsters are euthanized. Hamster blood is collected by cardiac puncture and serum is prepared for the quantification of peptide-specific antibodies by an in-house indirect ELISA method. Spleens and draining lymph nodes serve as a source of cells for the IFN-γ ELISPOT and other assays. Unless otherwise noted, water-in-oil emulsions are administered subcutaneously, all other adjuvant formulations are administered intramuscularly.
A total of 52 peptides are tested for immunogenicity. Antibody responses in hamster sera specimens to individual peptides or peptide pools are quantified by ELISA.
Briefly, Immulon 4 HBX 96-well plates for ELISA are obtained from Thermo Fisher Scientific (Waltham, Mass.). The plate is coated with 1 μg/well of either a pool of peptides or individual peptides in coating buffer (50 mM sodium carbonate, pH 9.6) overnight at 4° C. […] Optical density at 450 nm (OD450) is read within 15 minutes after adding H2SO4 using a Spectramax® ABS Plus microplate reader (Molecular Devices, San Jose, Calif.) and the SoftMax® 7 Pro Software.

golden Syrian hamsters [2] = experiment: IFN-γ ELISPOT of spleen and lymph node cells from immunized hamsters; format: in vivo; conditions: listed in rank order
C57BL/6J mice = experiment: Antibody ELISA of sera from immunized mice; format: in vivo; conditions: listed in rank order
Protocol: Briefly, Immulon 4 HBX 96-well plates for ELISA are obtained from Thermo Fisher Scientific (Waltham, Mass.). The plate is coated with 1 μg/well of either a pool of peptides or individual peptides in coating buffer (50 mM sodium carbonate, pH 9.6) overnight at 4° C. After the coating buffer is removed, the plate is blocked with 2% BSA in PBS for 1 hour at room temperature, followed by washing three times with 0.5% Tween in PBS (PBST). Sera are diluted 1:200 in PBS and added to each well and the plate is incubated for 2 hours at room temperature. After incubation, the plate is washed three times with PBST. The secondary antibody is conjugated with HRP, and iss added at a 1:10,000 dilution in PBS. The plate is incubated for 1 hour at room temperature. After washing three times with PBST, TMBE-100 peroxidase substrate (Rockland Immunochemicals, Inc., Limerick, Pa.) is added, followed by 30 minutes incubation at room temperature. Finally, the enzymatic reaction is stopped by adding 2M H2SO4. Optical density at 450 nm (OD450) is read within 15 minutes after adding H2SO4 using a Spectramax® ABS Plus microplate reader (Molecular Devices, San Jose, Calif.) and the SoftMax® 7 Pro Software. […]

rVSV-SARS-CoV-2-S virus = conditions: in vivo

Sequence | Hamsters ELISA: top 10 immunogenic peptides, ranked on magnitude of responses (golden Syrian hamsters [1]) | Hamsters ELISPOT: top 10 immunogenic peptides, ranked on magnitude of responses (golden Syrian hamsters [2]) | Mice ELISA: top 10 immunogenic peptides, ranked on magnitude of responses (C57BL/6J mice) | neutralization activity of peptide-specific antibody (rVSV-SARS-CoV-2-S virus)
PQIQLAVTRMENAVGRD [ORF9b.1*11] | ORF9b.1*11 | ORF9b.1*11 | ORF9b.1*11 | –
SRIGMEVTPSGTWLTYTGAIKLDDKDPNFKDQVILLNKHIDAYK (N-overlap Long) | – | – | – | non-specific background
YFTSDYYQLYSTQLSTDTGV [ORF3a] | ORF3a | ORF3a | ORF3a | –
